Data as given in PubChem BioAssay AID248 (DTP/NCI, 2004).
Several values for one entry are separate records, joined by “and”; a condition that tells them apart may be missing. Equal values may be shown once. Inconclusive results and toxic doses are left out. Rule as the data show it: active = T/C of 150% or more; inactive = T/C below 125%.

Tested on: L1210 leukemia ip in BDF1 mice, survival T/C
Assay: NCI In Vivo Anticancer Drug Screen. Data for tumor model L1210 Leukemia (intraperitoneal) in B6D2F1 (BDF1) mice
Conditions: endpoint: mean survival time, higher = longer survival
Outline: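 Antitumor effect is assessed in tumor-bearing animals. Survival in the compound arm is compared with a vehicle-dosed control arm and expressed as their quotient.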

[1] = dose: 50.0 mg/kg/injection, schedule: Q04DX003 (ip), vehicle: carboxymethylcellulose (CMC)
[2] = dose: 100.0 mg/kg/injection, schedule: Q04DX003 (ip), vehicle: carboxymethylcellulose (CMC)
[3] = dose: 200.0 mg/kg/injection, schedule: Q04DX003 (ip), vehicle: carboxymethylcellulose (CMC)
[4] = dose: 100.0 mg/kg/injection, schedule: Q04DX002 (ip), vehicle: Klucel (hydroxypropylcellulose) (HPC)
[5] = dose: 200.0 mg/kg/injection, schedule: Q04DX002 (ip), vehicle: Klucel (hydroxypropylcellulose) (HPC)
[6] = dose: 400.0 mg/kg/injection, schedule: Q04DX002 (ip), vehicle: Klucel (hydroxypropylcellulose) (HPC)
[7] = dose: 100.0 mg/kg/injection, schedule: Q04DX003 (ip), vehicle: Klucel (hydroxypropylcellulose) (HPC)
[8] = dose: 100.0 mg/kg/injection, schedule: Q01DX001 (ip), vehicle: carboxymethylcellulose (CMC)
[9] = dose: 100.0 mg/kg/injection, schedule: Q01DX009 (ip), vehicle: carboxymethylcellulose (CMC)
[10] = dose: 100.0 mg/kg/injection, schedule: Q04DX002 (ip), vehicle: carboxymethylcellulose (CMC)
[11] = dose: 200.0 mg/kg/injection, schedule: Q01DX001 (ip), vehicle: carboxymethylcellulose (CMC)
[12] = dose: 200.0 mg/kg/injection, schedule: Q04DX002 (ip), vehicle: carboxymethylcellulose (CMC)
[13] = dose: 100.0 mg/kg/injection, schedule: Q04DX003 (ip), vehicle: saline with Tween-80
[14] = dose: 200.0 mg/kg/injection, schedule: Q04DX003 (ip), vehicle: saline with Tween-80
[15] = dose: 400.0 mg/kg/injection, schedule: Q04DX003 (ip), vehicle: saline with Tween-80

Measured: T/C

Cc1cc(C)c(C(=O)/C=C(\N)C(=O)c2c(C)cc(C)cc2C)c(C)c1
inactive: [1] 110 % of control | [2] 98 % of control | [3] 104 % of control

CC(=O)C(C(=O)NCc1ccccc1)C(c1ccc2c(c1)OCO2)C(C(C)=O)C(=O)NCc1ccccc1 (stereo unspecified)
inactive: dose: 100.0 mg/kg/injection, schedule: Q01DX001 (ip), vehicle: saline 98 % of control | dose: 200.0 mg/kg/injection, schedule: Q01DX001 (ip), vehicle: saline 96 % of control | dose: 400.0 mg/kg/injection, schedule: Q01DX001 (ip), vehicle: saline 97 % of control

Cc1nc(N)[nH]c(=O)c1CCC(C)C
inactive: [4] 93 % of control | [5] 100 % of control | [6] 96 % of control

O=C(O)c1ccccc1C(=O)c1ccc(Br)cc1
inactive: [7] 93 % of control | dose: 200.0 mg/kg/injection, schedule: Q04DX003 (ip), vehicle: Klucel (hydroxypropylcellulose) (HPC) 96 % of control | dose: 400.0 mg/kg/injection, schedule: Q04DX003 (ip), vehicle: Klucel (hydroxypropylcellulose) (HPC) 104 % of control

Cc1cc(Cl)ccc1NS(=O)(=O)c1cccc([N+](=O)[O-])c1
inactive: dose: 100.0 mg/kg/injection, schedule: Q01DX009 (ip), vehicle: saline with Tween-80 90 % of control | dose: 200.0 mg/kg/injection, schedule: Q01DX009 (ip), vehicle: saline with Tween-80 90 % of control | dose: 400.0 mg/kg/injection, schedule: Q01DX009 (ip), vehicle: saline with Tween-80 87 % of control

Oc1ccccc1COCc1ccccc1O
inactive: dose: 100.0 mg/kg/injection, schedule: Q01DX001 (sc), vehicle: olive oil, sesame oil, peanut oil 104 % of control | dose: 100.0 mg/kg/injection, schedule: Q04DX003 (sc), vehicle: olive oil, sesame oil, peanut oil 102 % of control | dose: 200.0 mg/kg/injection, schedule: Q01DX001 (sc), vehicle: olive oil, sesame oil, peanut oil 98 % of control | dose: 200.0 mg/kg/injection, schedule: Q04DX003 (sc), vehicle: olive oil, sesame oil, peanut oil 108 % of control | dose: 400.0 mg/kg/injection, schedule: Q01DX001 (sc), vehicle: olive oil, sesame oil, peanut oil 100 % of control | dose: 400.0 mg/kg/injection, schedule: Q04DX003 (sc), vehicle: olive oil, sesame oil, peanut oil 108 % of control

O=C(NCc1ccccc1Cl)Nc1ccc(F)cc1
inactive: [8] 92 % of control | [9] 92 % of control and 93 % of control | [10] 95 % of control (2×) and 97 % of control | [2] 95 % of control | [11] 96 % of control | dose: 200.0 mg/kg/injection, schedule: Q01DX009 (ip), vehicle: carboxymethylcellulose (CMC) 101 % of control | [12] 94 % of control and 96 % of control and 88 % of control | [3] 96 % of control | dose: 400.0 mg/kg/injection, schedule: Q01DX001 (ip), vehicle: carboxymethylcellulose (CMC) 87 % of control | dose: 400.0 mg/kg/injection, schedule: Q01DX009 (ip), vehicle: carboxymethylcellulose (CMC) 92 % of control and 88 % of control | dose: 400.0 mg/kg/injection, schedule: Q04DX002 (ip), vehicle: carboxymethylcellulose (CMC) 93 % of control | dose: 400.0 mg/kg/injection, schedule: Q04DX003 (ip), vehicle: carboxymethylcellulose (CMC) 91 % of control

O=C(Nc1ccc([As](=O)(O)O)cc1)Nc1cccc(Cl)c1Cl
inactive: dose: 100.0 mg/kg/injection, schedule: Q01DX009 (ip), vehicle: Klucel (hydroxypropylcellulose) (HPC) 100 % of control | [4] 100 % of control | dose: 200.0 mg/kg/injection, schedule: Q01DX009 (ip), vehicle: Klucel (hydroxypropylcellulose) (HPC) 100 % of control | [5] 92 % of control | [6] 110 % of control

CCCNC(=O)C1C2C=CC(C2)C1C(=O)NCCC (stereo unspecified)
inactive: [13] 91 % of control | [14] 91 % of control | [15] 91 % of control

COc1cccc2c1C(=O)c1c(O)c3c(c(O)c1C2=O)CC(O)(C(C)=O)CC3OC1OC(COC(C)=O)C(OC(C)=O)C(OC(C)=O)C1NC(=O)C(F)(F)F (stereo unspecified)
inactive: dose: 0.63 mg/kg/injection, schedule: Q01DX009 (ip), vehicle: Klucel (hydroxypropylcellulose) (HPC) 98 % of control | dose: 1.25 mg/kg/injection, schedule: Q01DX009 (ip), vehicle: Klucel (hydroxypropylcellulose) (HPC) 91 % of control | dose: 2.5 mg/kg/injection, schedule: Q01DX009 (ip), vehicle: Klucel (hydroxypropylcellulose) (HPC) 94 % of control | dose: 5.0 mg/kg/injection, schedule: Q01DX009 (ip), vehicle: Klucel (hydroxypropylcellulose) (HPC) 97 % of control | dose: 10.0 mg/kg/injection, schedule: Q01DX009 (ip), vehicle: Klucel (hydroxypropylcellulose) (HPC) 97 % of control

COc1ccccc1N=Nc1c(O)n(-c2ccccc2C)c(=S)n(-c2ccccc2OC)c1=O
inactive: dose: 25.0 mg/kg/injection, schedule: Q04DX003 (ip), vehicle: Klucel (hydroxypropylcellulose) (HPC) 98 % of control | dose: 50.0 mg/kg/injection, schedule: Q04DX003 (ip), vehicle: Klucel (hydroxypropylcellulose) (HPC) 98 % of control | dose: 100.0 mg/kg/injection, schedule: Q01DX001 (ip), vehicle: Klucel (hydroxypropylcellulose) (HPC) 109 % of control | [7] 91 % of control | dose: 200.0 mg/kg/injection, schedule: Q01DX001 (ip), vehicle: Klucel (hydroxypropylcellulose) (HPC) 98 % of control

Cc1cc(C)cc(C(O)(c2cc(C)cc(C)c2)c2cc(C)cc(C)c2)c1
inactive: [13] 102 % of control | [14] 116 % of control | [15] 94 % of control

O=C(Nc1nccs1)Nc1cc(C(F)(F)F)ccc1Cl
inactive: dose: 50.0 mg/kg/injection, schedule: Q01DX001 (ip), vehicle: carboxymethylcellulose (CMC) 103 % of control | dose: 50.0 mg/kg/injection, schedule: Q01DX009 (ip), vehicle: carboxymethylcellulose (CMC) 98 % of control and 109 % of control | [1] 102 % of control | [8] 97 % of control | [9] 101 % of control and 88 % of control | [10] 97 % of control and 101 % of control | [2] 97 % of control | [11] 98 % of control | [12] 87 % of control | [3] 96 % of control

CCOP(=O)(OCC)ON=C(Cl)Cl
inactive: dose: 0.78 mg/kg/injection, schedule: Q01DX009 (ip), vehicle: saline 97 % of control | dose: 0.78 mg/kg/injection, schedule: Q04DX002 (ip), vehicle: saline 101 % of control | dose: 1.56 mg/kg/injection, schedule: Q01DX009 (ip), vehicle: saline 97 % of control | dose: 1.56 mg/kg/injection, schedule: Q04DX002 (ip), vehicle: saline 98 % of control | dose: 3.12 mg/kg/injection, schedule: Q01DX009 (ip), vehicle: Klucel (hydroxypropylcellulose) (HPC) 95 % of control | dose: 3.12 mg/kg/injection, schedule: Q01DX009 (ip), vehicle: saline 93 % of control | dose: 3.12 mg/kg/injection, schedule: Q04DX002 (ip), vehicle: saline 101 % of control and 92 % of control | dose: 4.6 mg/kg/injection, schedule: Q01DX009 (ip), vehicle: Klucel (hydroxypropylcellulose) (HPC) 105 % of control | dose: 7.0 mg/kg/injection, schedule: Q01DX009 (ip), vehicle: Klucel (hydroxypropylcellulose) (HPC) 96 % of control

C[S+](C)c1ccccc1NCc1ccccc1O
inactive: dose: 100.0 mg/kg/injection, schedule: Q01DX001 (ip), vehicle: saline with Tween-80 92 % of control | dose: 200.0 mg/kg/injection, schedule: Q01DX001 (ip), vehicle: saline with Tween-80 93 % of control | dose: 400.0 mg/kg/injection, schedule: Q01DX001 (ip), vehicle: saline with Tween-80 90 % of control
